In ChEMBL document CHEMBL1152438, “Design, synthesis, and structure-activity relationships of aminopyridine N-oxides, a novel scaffold for the potent and selective inhibition of p38 mitogen activated protein kinase” (J Med Chem, 2009):
Converted amounts (≈) assume the structure as drawn.

Columns and labels:
[1] = Solubility at pH 9.0; format: physicochemical; settings: buffer
[2] = Solubility at pH 7.4; format: physicochemical; settings: buffer
[3] = Solubility at pH 0.1; format: physicochemical; settings: buffer
[4] = Tmax in rat at 10 mg/kg, po; format: ADME, organism-based; parameters: dose 10 mg/kg, route oral; settings: in vivo
[5] = Cmax in rat at 10 mg/kg, po; format: ADME, organism-based; parameters: dose 10 mg/kg, route oral; settings: in vivo
[6] = Half life in rat at 0.5 mg/kg, iv; format: ADME, organism-based; parameters: dose 0.5 mg/kg, route intravenous; settings: in vivo
[7] = Volume of distribution at steady state in rat at 0.5 mg/kg, iv; format: ADME, organism-based; parameters: dose 0.5 mg/kg, route intravenous; settings: in vivo, read-out: Vdss
[8] = Clearance in rat at 0.5 mg/kg, iv; format: ADME, organism-based; parameters: dose 0.5 mg/kg, route intravenous; settings: in vivo
[9] = Oral bioavailability in rat at 10 mg/kg; format: ADME, organism-based; settings: in vivo
[10] = AUC (0 to 6 hrs) in rat at 10 mg/kg, po; format: ADME, organism-based; parameters: time < 6 hr, dose 10 mg/kg, route oral; settings: plasma
[11] = Clearance in rat at 1 mg/kg, iv; format: ADME, organism-based; parameters: dose 1 mg/kg, route intravenous; settings: in vivo
[12] = Half life in rat at 1 mg/kg, iv; format: ADME, organism-based; parameters: dose 1 mg/kg, route intravenous; settings: in vivo
[13] = Volume of distribution at steady state in rat at 1 mg/kg, iv; format: ADME, organism-based; parameters: dose 1 mg/kg, route intravenous; settings: in vivo, read-out: Vdss

Row | SMILES | solubility [1] | solubility [2] | solubility [3] | other results
1 | Nc1c(C(=O)c2ccc(F)cc2F)cc[n+]([O-])c1-c1c(F)cccc1F | 2 µg/mL (≈ 5.52 µM) | 4 µg/mL (≈ 11 µM) | – | –
2 | Cc1ccccc1-c1c(N)c(C(=O)c2ccc(F)cc2F)cc[n+]1[O-] | 74 µg/mL (≈ 217 µM) | 63 µg/mL (≈ 185 µM) | 110 µg/mL (≈ 323 µM) | Tmax [4]: 0.75 h; Cmax [5]: 4.7 µM; half-life [6]: 1.6 h; Vd [7]: 2.3 L/kg; clearance [8]: 16.7 mL/min/kg; bioavailability [9]: 75%; AUC(0-t) at 6 h [10]: 22.2 µM·h
3 | Cc1cc(O)ccc1-c1c(N)c(C(=O)c2ccc(F)cc2F)cc[n+]1[O-] | – | 37 µg/mL (≈ 104 µM) | 44 µg/mL (≈ 123 µM) | –
4 | Cc1cccc(C)c1-c1c(N)c(C(=O)c2ccc(F)cc2F)cc[n+]1[O-] | 70 µg/mL (≈ 198 µM) | 69 µg/mL (≈ 195 µM) | 40 µg/mL (≈ 113 µM) | –
5 | Nc1c(C(=O)c2ccc(F)cc2F)cc[n+]([O-])c1-c1ccccc1Cl | 39 µg/mL (≈ 108 µM) | 59 µg/mL (≈ 164 µM) | 66 µg/mL (≈ 183 µM) | Tmax [4]: 3.5 h; clearance [11]: 1.7 mL/min/kg; Cmax [5]: 11.9 µM; half-life [12]: 14.8 h; Vd [13]: 1.8 L/kg; bioavailability [9]: 23%; AUC(0-t) at 6 h [10]: 54.4 µM·h
6 | Cc1cc(OCCN2CCOCC2)ccc1-c1c(N)c(C(=O)c2ccc(F)cc2F)cc[n+]1[O-] | – | 51 µg/mL (≈ 109 µM) | > 1000 µg/mL | –

Second part, led by results:

Row | solubility [1] | solubility [2] | solubility [3] | SMILES | other results
7 | 89 µg/mL (≈ 215 µM) | 67 µg/mL (≈ 162 µM) | 24 µg/mL (≈ 57.9 µM) | COCCOc1ccc(-c2c(N)c(C(=O)c3ccc(F)cc3F)cc[n+]2[O-])c(C)c1 | –
8 | > 1000 µg/mL | > 1000 µg/mL | 41 µg/mL (≈ 107 µM) | Cc1cc(C(=O)O)ccc1-c1c(N)c(C(=O)c2ccc(F)cc2F)cc[n+]1[O-] | –
9 | 49 µg/mL (≈ 111 µM) | 46 µg/mL (≈ 104 µM) | 54 µg/mL (≈ 122 µM) | COCCNC(=O)c1ccc(-c2c(N)c(C(=O)c3ccc(F)cc3F)cc[n+]2[O-])c(C)c1 | –
